According to patent US6391329B1, “Insect pest control method” (Earth Chemical Co., Ltd., priority 1994, dated 2002):
Like-named read-outs stand apart in the source and are kept apart here.

What was measured:
[1] = Vapor pressure measurement of pyrethroid compounds with the vapor pressure measuring apparatus
[2] = Vapor pressure at 30° C. on the cox diagram; format: physicochemical
Protocol: Compounds which are hard to vaporize at normal temperature can be used in the present invention as a pesticidal component. Those having a vapor pressure […] than 1×10^−7 mmHg at 30° C. and a boiling point of not lower than 120° C./1 mmHg are preferred. It should be noted that the range of vapor pressure as referred to herein is the range at 30° C. on the vapor pressure vs. temperature plot in the cox diagram hereinafter described.
The results of our study have made it possible to suppose or know the vapor pressure at a target temperature by utilizing the cox diagram only if at least one found value is available. The aforesaid problem can thus be solved.
The cox diagram as used herein is the straight line or a group of the straight lines obtained by plotting log P as ordinate and t/(t+C) as abscissa on a graph.

[3] = tested on: Northern house mosquito (female adult); assay: Insecticidal test in acrylic resin cylinder, air blown through impregnated honeycomb carrier (Example 1); format: in vivo; details: 500 mg preparation; for number of knockdowns: 26 to 30° C.
From the text: Testing apparatus 1 shown in FIG. 1 comprising acrylic resin cylinder 4 was used. Twenty of northern house mosquitos (female adult) were put in the space partitioned with insect nets 2, and blower 3 was set at the bottom of testing apparatus 1. Preparation-retaining material 5 comprising a honeycomb carrier impregnated with a preparation was fitted in at the lower part of cylinder 4 and above blower 3. Air was blown from the bottom of cylinder 4 and passed through the preparation-retaining material 5 to release the pesticidal component from the preparation, and the insecticidal effect was examined using apparatus 1 for insect control of the present invention.
The number of knockdowns of the mosquitos was counted for every 30 seconds during 10 minutes and 30 seconds following the start of the testing. The mosquitos knocked down were transferred to a clean plastic cup (volume: about 500 ml) containing a cotton wad impregnated with a 1% aqueous sugar solution as feed, and the cup was covered and maintained under constant temperature conditions of about 25° C. […]
The preparation-retaining material used herein was prepared as follows. A honeycomb structure (70×70×15 mm) comprising a laminate of corrugated boards (single-sided) made of bleached kraft paper having a basis weight of 80 g/m^2 (height of the corrugation: about 2 mm) was uniformly impregnated with 3 ml of an acetone solution containing about 500 mg of preparation. The impregnated carrier was set in the apparatus after acetone vaporized.

[4] = tested on: sensitive smokybrown cockroaches (Periplaneta fuliginosa); assay: Cockroach knockdown and mortality in 24 m^3 test room (Example 3); format: in vivo; details: 1.0 g pesticidal component
Protocol: (§1) The insect pest control apparatus of the present invention was put at the center of the floor of the room, and two cups each containing 20 cockroaches were placed at each of the two opposite corners of the floor. The pesticidal component shown in Table 5 below was released from the apparatus for consecutive 24 hours. As test insects, sensitive German cockroaches (Blatella germanica) and sensitive smokybrown cockroaches (Periplaneta fuliginosa) were used.
(§2) The preparation-retaining material used was prepared by impregnating a honeycomb carrier (70×70×15 mm; FIG. 3) with 1.0 g of the pesticidal component.

[5] = tested on: sensitive German cockroaches (Blatella germanica); assay: as above; format: in vivo; details: 1.0 g pesticidal component
Protocol: as §1, §2

[6] = at 30° C.; cited from earlier work

| SMILES | Vapor Pressure ([1]; 20° C.) | Vapor Pressure ([1]; 25° C.) | Vapor Pressure ([1]; 30° C.) | Vapor Pressure ([1]; 35° C.) | Vapor Pressure ([1]; 40° C.) | Vapor Pressure at 30° C. [2] | number of knockdowns ([3]; 0.5 min) | number of knockdowns ([3]; 1.0 min) | number of knockdowns ([3]; 1.5 min) | number of knockdowns ([3]; 2.0 min) | number of knockdowns ([3]; 2.5 min) | number of knockdowns ([3]; 3.0 min) | number of knockdowns ([3]; 3.5 min) | number of knockdowns ([3]; 4.0 min) | Mortality (%) ([3]; 24 hrs.) | Mortality (%) ([3]; 48 hrs.) | also measured |
| --- | --- | --- | --- | --- | --- | --- | --- | --- | --- | --- | --- | --- | --- | --- | --- | --- | --- |
| C#CC(OC(=O)C1C(C=C(C)C)C1(C)C)/C(C)=C/CC (mixture of isomers) [empenthrin, 1-ethynyl-2-methyl-2-pentenyl dl-cis/trans-3-(2,2-dimethylvinyl)-2,2-dimethyl-1-cyclopropanecarboxylate] | 5.1 × 10^−4 mmHg | 9.2 × 10^−4 mmHg | 1.6 × 10^−3 mmHg | 2.8 × 10^−3 mmHg | 4.8 × 10^−3 mmHg | 1.5 × 10^−3 mmHg | 0 | 0 | 1 | 2 | 5 | 10 | 16 | 25 | 96 | 100 | Knockdown Ratio (%) ([4]; 1 hr): 0%; Knockdown Ratio (%) ([4]; 2 hrs): 0%; Knockdown Ratio (%) ([4]; 4 hrs): 0%; Knockdown Ratio (%) ([4]; 24 hrs): 65.0%; Mortality at 48 hrs (%) ([4]; 48 hrs): 75.0%; Knockdown Ratio (%) ([5]; 1 hr): 0%; Knockdown Ratio (%) ([5]; 2 hrs): 0%; Knockdown Ratio (%) ([5]; 4 hrs): 0%; Knockdown Ratio (%) ([5]; 24 hrs): 90.0%; Mortality at 48 hrs (%) ([5]; 48 hrs): 90.0% |
| CC(C)=CC1C(C(=O)OCc2coc(Cc3ccccc3)c2)C1(C)C (mixture of isomers) [resmethrin, (5-benzyl-3-furyl)methyl d-cis/trans-chrysanthemate] | 3.5 × 10^−6 mmHg | 7.1 × 10^−6 mmHg | 1.7 × 10^−5 mmHg | 2.8 × 10^−5 mmHg | 5.6 × 10^−5 mmHg | 1.7 × 10^−5 mmHg | 0 | 0 | 0 | 0 | 2 | 2 | 4 | 5 | 58 | 79 | number of knockdowns ([3]; 4.5 min): 5; number of knockdowns ([3]; 5.0 min): 7; number of knockdowns ([3]; 5.5 min): 7; number of knockdowns ([3]; 6.0 min): 8; number of knockdowns ([3]; 6.5 min): 10; number of knockdowns ([3]; 7.0 min): 12; number of knockdowns ([3]; 7.5 min): 13; number of knockdowns ([3]; 8.0 min): 16; number of knockdowns ([3]; 8.5 min): 17; number of knockdowns ([3]; 9.0 min): 19 |
| C=CCC1=C(C)C(OC(=O)C2C(C)(C)C2(C)C)CC1=O (racemic) [terallethrin, dl-3-allyl-2-methyl-4-oxo-2-cyclopentenyl dl-cis/trans-2,2,3,3-tetramethylcyclopropanecarboxylate] | 2.2 × 10^−4 mmHg | 4.2 × 10^−4 mmHg | 6.6 × 10^−4 mmHg | 1.2 × 10^−3 mmHg | 4.8 × 10^−3 mmHg | 6.6 × 10^−4 mmHg | 0 | 0 | 4 | 15 | 17 |  |  |  | 88 | 100 |  |
| COP(=O)(OC)OC=C(Cl)Cl [DDVP] | 1.2 × 10^−2 mmHg | 1.9 × 10^−2 mmHg | 3.0 × 10^−2 mmHg | 4.6 × 10^−2 mmHg | 7.1 × 10^−2 mmHg |  |  |  |  |  |  |  |  |  |  |  | Vapor Pressure [6]: 1×10^−2 mmHg |
